Key:
[1] = target: T1, IL-17A/A (Homo sapiens, UniProt Q16552); assay: IL-17A/A HEK-Blue cell assay (SEAP reporter); assay type: cell-based; details: HEK-Blue IL-17A reporter cells, IL17A/A 5 ng/mL, 20 hours, SEAP read at A630; read-out: HEK-Blue IL17AA (IC50 for IL-17A/A inhibition)
T1 construct: purchased Genscript Z03228
T1 sequence (Q16552 24-155): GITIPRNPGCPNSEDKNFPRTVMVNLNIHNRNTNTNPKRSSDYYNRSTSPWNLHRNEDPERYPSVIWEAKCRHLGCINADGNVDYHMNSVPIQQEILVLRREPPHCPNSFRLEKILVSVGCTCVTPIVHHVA

[2] = target: T2, IL-17A/F (Homo sapiens, UniProt Q16552+Q96PD4); assay: IL-17A/F HEK-Blue cell assay (SEAP reporter); assay type: cell-based; details: HEK-Blue IL-17A reporter cells, IL17A/F 5 ng/mL, 20 hours, SEAP read at A630; read-out: HEK-Blue IL17AF (IC50 for IL-17A/F inhibition)
T2 construct: purchased R&D Systems
T2 sequence (Q16552 24-155): T1 sequence (Q16552 24-155)
T2 sequence (Q96PD4 31-163): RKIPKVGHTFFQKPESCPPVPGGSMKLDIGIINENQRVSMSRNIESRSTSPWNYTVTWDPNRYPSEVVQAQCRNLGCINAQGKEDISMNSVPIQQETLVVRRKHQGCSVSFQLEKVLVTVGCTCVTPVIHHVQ

Row | IC50 [1] [µM] | IC50 [2] [µM] | SMILES
1 | 0.1 to 1 | > 1 | CC(C)c1nocc1C(=O)N[C@H](c1cn2nc(CC3C[C@@H](C(F)(F)F)CNC3=O)cnc2n1)C1CCC(F)(F)CC1 (stereo partly drawn) [Compound 8, N—((S)-(4,4-difluorocyclohexyl)(2-(((5R)-2-oxo-5-(trifluoromethyl)piperidin-3-yl)methyl)imidazo[1,2-b][1,2,4]triazin-6-yl)methyl)-3-isopropylisoxazole-4-carboxamide]
2 | < 0.1 | > 1 | O=C(N[C@H](c1cn2nc(CC3C[C@@H](C(F)(F)F)CNC3=O)cnc2n1)C1CCC(F)(F)CC1)c1conc1C1CC1 (stereo partly drawn) [Compound 9, 3-cyclopropyl-N—((S)-(4,4-difluorocyclohexyl)(2-(((5R)-2-oxo-5-(trifluoromethyl)piperidin-3-yl)methyl)imidazo[1,2-b][1,2,4]triazin-6-yl)methyl)isoxazole-4-carboxamide]
3 | 0.1 to 1 | > 1 | O=C(N[C@H](c1cn2nc(CC3C[C@@H](C(F)(F)F)CNC3=O)cnc2n1)C1CCC(F)(F)CC1)c1conc1C(F)(F)F (stereo partly drawn) [Compound 10, N—((S)-(4,4-difluorocyclohexyl)(2-(((5R)-2-oxo-5-(trifluoromethyl)piperidin-3-yl)methyl)imidazo[1,2-b][1,2,4]triazin-6-yl)methyl)-3-(trifluoromethyl)isoxazole-4-carboxamide]
4 | 0.1 to 1 | > 1 | CCc1nonc1C(=O)N[C@H](c1cn2nc(CC3C[C@@H](C(F)(F)F)CNC3=O)cnc2n1)C1CCC(F)(F)CC1 (stereo partly drawn) [Compound 11, N—((S)-(4,4-difluorocyclohexyl)(2-(((5R)-2-oxo-5-(trifluoromethyl)piperidin-3-yl)methyl)imidazo[1,2-b][1,2,4]triazin-6-yl)methyl)-4-ethyl-1,2,5-oxadiazole-3-carboxamide]
5 | < 0.1 | > 1 | CC(C)c1nonc1C(=O)N[C@H](c1cn2nc(CC3C[C@@H](C(F)(F)F)CNC3=O)cnc2n1)C1CCC(F)(F)CC1 (stereo partly drawn) [Compound 12]
6 | < 0.1 | > 1 | O=C(N[C@H](c1cn2nc(CC3C[C@@H](C(F)(F)F)CNC3=O)cnc2n1)C1CCC(F)(F)CC1)c1nonc1C1CC1 (stereo partly drawn) [Compound 13, 4-cyclopropyl-N—((S)-(4,4-difluorocyclohexyl)(2-(((5R)-2-oxo-5-(trifluoromethyl)piperidin-3-yl)methyl)imidazo[1,2-b][1,2,4]triazin-6-yl)methyl)-1,2,5-oxadiazole-3-carboxamide]
7 | 0.1 to 1 | > 1 | CC(C)n1nccc1C(=O)N[C@H](c1cn2nc(CC3C[C@H](C(F)(F)F)CNC3=O)cnc2n1)C1CCC(F)(F)CC1 (stereo partly drawn) [Compound 15, N—((S)-(4,4-difluorocyclohexyl)(2-(((5S)-2-oxo-5-(trifluoromethyl)piperidin-3-yl)methyl)imidazo[1,2-b][1,2,4]triazin-6-yl)methyl)-1-isopropyl-1H-pyrazole-5-carboxamide]
8 | 0.1 to 1 | > 1 | O=C(N[C@H](c1cn2nc(CC3C[C@H](C(F)(F)F)CNC3=O)cnc2n1)C1CCC(F)(F)CC1)c1nonc1C1CC1 (stereo partly drawn) [Compound 16, 4-cyclopropyl-N—((S)-(4,4-difluorocyclohexyl)(2-(((5S)-2-oxo-5-(trifluoromethyl)piperidin-3-yl)methyl)imidazo[1,2-b][1,2,4]triazin-6-yl)methyl)-1,2,5-oxadiazole-3-carboxamide]
9 | 0.1 to 1 | > 1 | CCn1nccc1C(=O)N[C@H](c1cn2nc(CC3C[C@@H](C(F)(F)F)CNC3=O)cnc2n1)C1CCC(F)(F)CC1 (stereo partly drawn) [Compound 24]
10 | 0.1 to 1 | > 1 | CCn1nccc1C(=O)N[C@H](c1cn2nc(C[C@@H]3C[C@@H](C(F)(F)F)CNC3=O)cnc2n1)[C@H]1CC[C@H](C)CC1 [Compound 25]
11 | < 0.1 | > 1 | CCn1nccc1C(=O)N[C@H](c1cn2nc(C[C@H]3C[C@@H](C(F)(F)F)CNC3=O)cnc2n1)[C@H]1CC[C@H](C)CC1 [Compound 26]
12 | < 0.1 | > 1 | CCn1nccc1C(=O)N[C@H](c1cn2nc(C[C@H]3C[C@@H](C(F)(F)F)CNC3=O)cnc2n1)C1CCC(F)(F)CC1 [Compound 27]
13 | 0.1 to 1 | > 1 | CCn1nccc1C(=O)N[C@H](c1cn2nc(C[C@@H]3C[C@@H](C(F)(F)F)CNC3=O)cnc2n1)C1CCC(F)(F)CC1 [Compound 28]
14 | < 0.1 | > 1 | CCn1nccc1C(=O)N[C@H](c1cn2nc(C[C@H]3C[C@@H](C(F)(F)F)CNC3=O)cnc2n1)C(C1CC1)C1CC1 [Compound 29, N—((S)-2,2-dicyclopropyl-1-(2-(((3R,5R)-2-oxo-5-(trifluoromethyl)piperidin-3-yl)methyl)imidazo[1,2-b][1,2,4]triazin-6-yl)ethyl)-1-ethyl-1H-pyrazole-5-carboxamide]
15 | < 0.1 | > 1 | CCn1nccc1C(=O)N[C@H](c1cn2nc(C[C@H]3C[C@@H](C(F)(F)F)CNC3=O)cnc2n1)[C@H]1CCCC(F)(F)C1 [Compound 30, N—((S)—((S)-3,3-difluorocyclohexyl)(2-(((3R,5R)-2-oxo-5-(trifluoromethyl)piperidin-3-yl)methyl)imidazo[1,2-b][1,2,4]triazin-6-yl)methyl)-1-ethyl-1H-pyrazole-5-carboxamide]
16 | 0.1 to 1 | > 1 | CC(C)c1nocc1C(=O)N[C@H](c1cn2nc(C[C@H]3C[C@@H](C(F)(F)F)CNC3=O)cnc2n1)C1CCC(F)(F)CC1 [Compound 32]
17 | < 0.1 | > 1 | CC(C)n1nccc1C(=O)N[C@H](c1cn2nc(C[C@H]3C[C@@H](C(F)(F)F)CNC3=O)cnc2n1)C1CCC(F)(F)CC1 [Compound 34]

Row | IC50 [1] [µM] | IC50 [2] [µM] | SMILES
18 | 0.1 to 1 | > 1 | CCc1nonc1C(=O)N[C@H](c1cn2nc(C[C@H]3C[C@@H](C(F)(F)F)CNC3=O)cnc2n1)C1CCC(F)(F)CC1 [Compound 35]
19 | 0.1 to 1 | > 1 | Cn1nccc1C(=O)N[C@H](c1cn2nc(C[C@H]3C[C@@H](C(F)(F)F)CNC3=O)cnc2n1)C1CCC(F)(F)CC1 [Compound 36]
20 | < 0.1 | > 1 | CC(C)c1nonc1C(=O)N[C@H](c1cn2nc(C[C@H]3C[C@@H](C(F)(F)F)CNC3=O)cnc2n1)C1CCC(F)(F)CC1 [Compound 37]
21 | 0.1 to 1 | > 1 | O=C(N[C@H](c1cn2nc(C[C@H]3C[C@@H](C(F)(F)F)CNC3=O)cnc2n1)C1CCC(F)(F)CC1)c1conc1C1CC1 [Compound 38]
22 | < 0.1 | > 1 | O=C(N[C@H](c1cn2nc(C[C@H]3C[C@@H](C(F)(F)F)CNC3=O)cnc2n1)C(C1CC1)C1CC1)c1nonc1C1CC1 [Compound 39, 4-cyclopropyl-N—((S)-2,2-dicyclopropyl-1-(2-(((3R,5R)-2-oxo-5-(trifluoromethyl)piperidin-3-yl)methyl)imidazo[1,2-b][1,2,4]triazin-6-yl)ethyl)-1,2,5-oxadiazole-3-carboxamide]
23 | 0.1 to 1 | > 1 | O=C(N[C@H](c1cn2nc(C[C@H]3C[C@@H](C(F)(F)F)CNC3=O)cnc2n1)C1CCC(F)(F)CC1)c1conc1CCF [Compound 40]
24 | 0.1 to 1 | > 1 | CC(C)n1nccc1C(=O)N[C@H](c1cn2nc(C[C@H]3C[C@H](C(F)(F)F)CNC3=O)cnc2n1)C1CCC(F)(F)CC1 [Compound 41]
25 | 0.1 to 1 | > 1 | O=C(N[C@H](c1cn2nc(C[C@H]3C[C@@H](C(F)(F)F)CNC3=O)cnc2n1)C1CCC(F)(F)CC1)c1conc1C(F)(F)F [Compound 42]
26 | < 0.1 | > 1 | O=C(N[C@H](c1cn2nc(C[C@H]3C[C@@H](C(F)(F)F)CNC3=O)cnc2n1)C1CCC(F)(F)CC1)c1nonc1C1CC1 [Compound 43]
27 | < 0.1 | 0.1 to 1 | CCn1nccc1C(=O)N[C@H](c1cn2nc(C[C@H]3C[C@@H](C(F)(F)F)CNC3=O)c(N3CCOCC3)nc2n1)C1CCC(F)(F)CC1 [Compound 46]
28 | < 0.1 | > 1 | CCn1nccc1C(=O)N[C@H](c1cn2nc(CC3C[C@@H](C(F)(F)F)CNC3=O)c(N3CCOCC3)nc2n1)C1CCC(F)(F)CC1 (stereo partly drawn) [Compound 47]
29 | 0.1 to 1 | > 1 | O=C(N[C@H](c1cn2nc(C[C@H]3C[C@H](C(F)(F)F)CNC3=O)cnc2n1)C1CCC(F)(F)CC1)c1nonc1C1CC1 [Compound 53]
30 | < 0.1 | > 1 | O=C(N[C@H](c1cn2nc(CC3C[C@@H](C(F)(F)F)CNC3=O)c(N3CCOCC3)nc2n1)C1CCC(F)(F)CC1)c1nonc1C1CC1 (stereo partly drawn) [Compound 57]
31 | < 0.1 | 0.1 to 1 | CCn1nccc1C(=O)N[C@H](c1cn2nc(CC3C[C@@H](C(F)(F)F)CNC3=O)c(N3CCOCC3)nc2n1)[C@H]1CC[C@H](C)CC1 (stereo partly drawn) [Compound 58]
32 | < 0.1 | > 1 | CCn1nccc1C(=O)N[C@H](c1cn2nc(CC3C[C@@H](C(F)(F)F)CNC3=O)c(N3CCOCC3)nc2n1)[C@H]1CC[C@H](C)CC1 (stereo partly drawn) [Compound 59]
33 | < 0.1 | > 1 | CC[C@@H](c1ccc(F)cc1)[C@H](NC(=O)c1ccnn1CC)c1cn2nc(C[C@H]3C[C@@H](C(F)(F)F)CNC3=O)cnc2n1 [Compound 60, 1-ethyl-N-((1S,2S)-2-(4-fluorophenyl)-1-(2-(((3R,5R)-2-oxo-5-(trifluoromethyl)piperidin-3-yl)methyl)imidazo[1,2-b][1,2,4]triazin-6-yl)butyl)-1H-pyrazole-5-carboxamide]
